Earlier results on two compounds are cited in patent US5496811A, “Submicron emulsions as ocular drug delivery vehicles” (priority 1992, dated 1996).

For `COc1ccc2c(c1)c(CC(=O)O)c(C)n2C(=O)c1ccc(Cl)cc1` [Indomethacin], the solubility in water entry is “practically insoluble in water”. Besides, under “alkaline solutions”, the “solubility in alkaline solutions” value is on record as “soluble in alkaline solutions” and the “stability in alkaline solutions” value is reported as “unstable under these conditions”.

Regarding `CCC1C(=O)OCC1Cc1cncn1C` (centres unmarked) [Pilocarpine, 3-ethyldihydro-4-[(1-methyl-1H-imidazole-5-yl)methyl]-2(3H)-furanon], the solubility in water entry is “soluble in water”. Besides, for the setting “oil”, the solubility in oil result is “sparingly soluble in oil”.
